Patent EP1561465A2, “Methods of use of fluoroquinolone compounds against bacteria” (LG Life Sciences, Ltd., priority 1999, dated 2001)
In brackets after ≈: the same amount, converted by molar mass. Like-named read-outs stand apart in the source and are kept apart here.

Legend:
Format in all cases: cell-based
Staphylococcus aureus = assay: microbe, parasite or virus in culture; conditions: Staphylococcus aureus
Enterococcus faecium = assay: MIC by NCCLS broth microdilution, 1100 Japanese clinical isolates 1997-1998; conditions: for MIC: Enterococcus faecium
Klebsiella oxytoca = assay: as above; conditions: Klebsiella oxytoca (n=40)
Proteus mirabilis = assay: as above
E. coli = assay: MIC and MBC by microdilution in Mueller-Hinton broth, uropathogens
Procedure: (§1) MICs and MBCs were determined by a microdilution method with Mueller-Hinton broth. An inoculum of 1.3-9.4 x 10^5 colony forming units (CFU) per ml was used.
(§2) Strains included a reference strain E. coli ATCC 25922, susceptible to nalidixic acid (Nal-S) and the following clinical isolates obtained from complicated UTI patients: E. coli (resistant to nalidixic acid), K. pneumoniae, P. mirabilis , P. aeruginosa, […] (3 strains) and Enterococcus faecalis (2 strains).

E. faecalis [1] = assay: as above; conditions: Enterococcus faecalis
Procedure: as §1, §2

K. pneumoniae [2] = assay: as above
Procedure: as §1, §2

P. aeruginosa [3] = assay: as above
Procedure: as §1, §2

P. mirabilis = assay: as above
Procedure: as §1, §2

S. aureus = assay: as above; conditions: Staphylococcus aureus
Procedure: as §1, §2

K. pneumoniae [4] = assay: Urinary bactericidal titers (UBT) and AUBTC of volunteers' urine; conditions: K. pneumoniae (16) Laboratory No. 595; urine after gemifloxacin 320 mg or ofloxacin 400 mg
P. aeruginosa [5] = assay: as above; conditions: P. aeruginosa (16) Laboratory No. 568; urine after gemifloxacin 320 mg or ofloxacin 400 mg
E. faecalis [6] = assay: as above; conditions: urine after gemifloxacin 320 mg or ofloxacin 400 mg
[7] = E. faecalis Laboratory No. 55, inoculum 6.0 CFU 10^5/ml
[8] = E. faecalis Laboratory No. 60, inoculum 7.0 CFU 10^5/ml
[9] = S. aureus Laboratory No. 83, inoculum 7.1 CFU 10^5/ml
[10] = S. aureus Laboratory No. 161, inoculum 9.4 CFU 10^5/ml
[11] = S. aureus Laboratory No. 636, inoculum 5.6 CFU 10^5/ml

CO/N=C1\CN(c2nc3c(cc2F)c(=O)c(C(=O)O)cn3C2CC2)CC1CN (racemic) [Gemifloxacin, (R,S)-7-(3-aminomethyl-4-methoxyiminopyrrolidin-1-yl)-1-cyclopropyl-6-fluoro-4-oxo-1,4-dihydro-1,8-naphthyridine-3-carboxylic acid]
MIC (Staphylococcus aureus; S. aureus KU2242, mutant type T (DNA topoisomerase IV)): 0.063 µg/mL (≈ 0.162 µM)
MIC (Staphylococcus aureus; S. aureus KU2244, mutant type G (DNA gyrase)): 0.125 µg/mL (≈ 0.321 µM)
MIC (Staphylococcus aureus; S. aureus KU2246, mutant type T (DNA topoisomerase IV)): 0.125 µg/mL (≈ 0.321 µM)
MIC50 (Enterococcus faecium; Enterococcus faecium (n=39)): 16 µg/mL (≈ 41.1 µM)
MIC90 (Enterococcus faecium; Enterococcus faecium (n=39)): 64 µg/mL (≈ 164 µM)
MIC Range (Enterococcus faecium; Enterococcus faecium (n=39)): 0.063 to 64 µg/mL
MIC (Enterococcus faecium; Enterococcus faecium (vanA) vancomycin resistant, strain TMS1): 16 µg/mL (≈ 41.1 µM)
MIC (Enterococcus faecium; Enterococcus faecium (vanA) vancomycin resistant, strain TMS2): 2 µg/mL (≈ 5.14 µM)
MIC (Enterococcus faecium; Enterococcus faecium (vanA) vancomycin resistant, strain TMS3): 4 µg/mL (≈ 10.3 µM)
MIC (Enterococcus faecium; Enterococcus faecium (vanA) vancomycin resistant, strain TMS4): 4 µg/mL (≈ 10.3 µM)
MIC (Enterococcus faecium; Enterococcus faecium (vanA) vancomycin resistant, strain TMS5): 2 µg/mL (≈ 5.14 µM)
MIC (Enterococcus faecium; Enterococcus laecium (van B) vancomycin resistant, strain TMS6): 32 µg/mL (≈ 82.2 µM)
MIC (Enterococcus faecium; Enterococcus laecium (van B) vancomycin resistant, strain TMS7): 32 µg/mL (≈ 82.2 µM)
MIC50 (Klebsiella oxytoca): 0.032 µg/mL (≈ 0.0822 µM)
MIC90 (Klebsiella oxytoca): 4 µg/mL (≈ 10.3 µM)
MIC Range (Klebsiella oxytoca): ≤0.008 to 32 µg/mL
MIC50 (Proteus mirabilis; Proteus mirabilis): 0.125 µg/mL (≈ 0.321 µM)
MIC Range (Proteus mirabilis; Proteus mirabilis (n=30)): 0.063 to 16 µg/mL
MIC90 (Proteus mirabilis; Proteus mirabilis (n=30), read-out: MIC90): 0.25 µg/mL (≈ 0.642 µM)
MIC (E. coli; E. coli ATCC 25922, inoculum 1.3 CFU 10^5/ml): 0.016 µg/mL (≈ 0.0411 µM)
MIC (E. coli; E. coli Laboratory No. 523, inoculum 3.4 CFU 10^5/ml): 0.06 µg/mL (≈ 0.154 µM)
MIC (E. coli; Escherichia coli, ATCC25922, E. coli ATCC 25922 (reference strain), read-out: MIC): 0.016 µg/mL (≈ 0.0411 µM)
MBC (E. coli; Escherichia coli, ATCC25922, E. coli ATCC 25922, inoculum 1.3 CFU 10^5/ml): 0.016 µg/mL (≈ 0.0411 µM)
MBC (E. coli; Escherichia coli, E. coli Laboratory No. 523, inoculum 3.4 CFU 10^5/ml): 0.06 µg/mL (≈ 0.154 µM)
MIC (E. coli; Escherichia coli, E. coli clinical isolate (0.06/0.5), read-out: MIC): 0.06 µg/mL (≈ 0.154 µM)
MBC (E. faecalis [1]; [7]): 2 µg/mL (≈ 5.14 µM)
MIC (E. faecalis [1]; [7]): 0.5 µg/mL (≈ 1.28 µM)
MBC (E. faecalis [1]; [8]): 0.06 µg/mL (≈ 0.154 µM)
MIC (E. faecalis [1]; [8]): 0.06 µg/mL (≈ 0.154 µM)
MIC (E. faecalis [1]; E. faecalis isolate (0.06/2)): 0.06 µg/mL (≈ 0.154 µM)
MIC (E. faecalis [1]; E. faecalis isolate (0.5/32)): 0.5 µg/mL (≈ 1.28 µM)
MIC (K. pneumoniae [2]; K. pneumoniae Laboratory No. 595, inoculum 3.7 CFU 10^5/ml): 0.03 µg/mL (≈ 0.077 µM)
MBC (K. pneumoniae [2]; Klebsiella pneumoniae, K. pneumoniae Laboratory No. 595, inoculum 3.7 CFU 10^5/ml): 0.03 µg/mL (≈ 0.077 µM)
MIC (K. pneumoniae [2]; Klebsiella pneumoniae, K. pneumoniae clinical isolate, read-out: MIC): 0.03 µg/mL (≈ 0.077 µM)
MIC (P. aeruginosa [3]; P. aeruginosa Laboratory No. 568, inoculum 5.6 CFU 10^5/ml): 1 µg/mL (≈ 2.57 µM)
MBC (P. aeruginosa [3]; Pseudomonas aeruginosa, P. aeruginosa Laboratory No. 568, inoculum 5.6 CFU 10^5/ml): 2 µg/mL (≈ 5.14 µM)
MIC (P. aeruginosa [3]; Pseudomonas aeruginosa, P. aeruginosa clinical isolate, read-out: MIC): 1 µg/mL (≈ 2.57 µM)
MIC (P. mirabilis; P. mirabilis Laboratory No. 414, inoculum 2.5 CFU 10^5/ml): 0.125 µg/mL (≈ 0.321 µM)
MIC (P. mirabilis; Proteus mirabilis): 0.125 µg/mL (≈ 0.321 µM)
MBC (P. mirabilis; Proteus mirabilis, P. mirabilis Laboratory No. 414, inoculum 2.5 CFU 10^5/ml): 0.25 µg/mL (≈ 0.642 µM)
MBC (S. aureus; [9]): 0.008 µg/mL (≈ 0.0205 µM)
MIC (S. aureus; [9]): 0.008 µg/mL (≈ 0.0205 µM)
MBC (S. aureus; [10]): 0.25 µg/mL (≈ 0.642 µM)
MIC (S. aureus; [10]): 0.25 µg/mL (≈ 0.642 µM)
MBC (S. aureus; [11]): 2 µg/mL (≈ 5.14 µM)
MIC (S. aureus; [11]): 2 µg/mL (≈ 5.14 µM)
MIC (S. aureus; S. aureus isolate (0.008/0.25)): 0.008 µg/mL (≈ 0.0205 µM)
MIC (S. aureus; S. aureus isolate (0.25/4)): 0.25 µg/mL (≈ 0.642 µM)
MIC (S. aureus; S. aureus isolate (2/32), quinolone-resistant): 2 µg/mL (≈ 5.14 µM)
AUBTC (range) (K. pneumoniae [4]): 321 (72-564)
AUBTC (range) (P. aeruginosa [5]): 48 (12-300)
AUBTC (range) (E. faecalis [6]; E. faecalis (13) Laboratory No. 55): 39 (0-102)
AUBTC (range) (E. faecalis [6]; E. faecalis (16) Laboratory No. 60): 246 (96-516)
